# Source: patent publication US9687572B2, “PSMA-targeted dendrimers” (MOLECULAR INSIGHT PHARMACEUTICALS, INC., priority 2010, dated 2017)
# Target: T1, PSMA (Homo sapiens, UniProt Q04609)
# T1 construct: host or cells: LNCaP human prostate cancer cells
# Assay: Competitive binding assay against [123I]-MIP-1072 on LNCaP cells
# Conditions: FIG. 1
# Experimental: The newly prepared analogs of the general structure 5 were screened in a human prostate cancer cell binding assay at a concentration of 3 nM using PSMA positive (+), LnCap cells.
# Human prostate cancer cell line, LNCaP (PSMA positive) were obtained from the American Type Culture Collection (Rockville, Md.). LNCaP cells were maintained in RPMI-1640 medium (Invitrogen, Carlsbad, Calif.) supplemented with 10% fetal bovine serum (Hyclone, Logan, Utah) in a humidified incubator at 37° C./5% CO2. Cells were removed from flasks for passage or for transfer to 12-well assay plates by incubating them with 0.25% trypsin/EDTA (Invitrogen, Carlsbad, Calif.).
# In a typical competitive binding assay, LNCaP cells were plated in 12-well plates at approximately 4×10^5 cells/well and incubated for 48 hours in a humidified incubator at 37° C./5% carbon dioxide prior to addition of PSMA inhibitors. The exemplary EDTA-PSMA tetramer MIP-1444 was diluted in serum-free cell culture medium containing 0.5% bovine serum albumin (BSA). Diluted MIP-1444 was added to the cells in the presence of 3 nM [^123I]-MIP-1072 for 1 hour at room temperature. Cells were removed from the plates by gently pipetting and transferred to 1.5 mL Eppendorff tubes. Samples were microcentrifuged for 30 seconds at 15K×g. […] Cell binding of [^123I]-MIP-1072 was determined by counting the cell pellet in a Wallac 1282 automated gamma counter. […]
# T1 sequence (Q04609 whole entry): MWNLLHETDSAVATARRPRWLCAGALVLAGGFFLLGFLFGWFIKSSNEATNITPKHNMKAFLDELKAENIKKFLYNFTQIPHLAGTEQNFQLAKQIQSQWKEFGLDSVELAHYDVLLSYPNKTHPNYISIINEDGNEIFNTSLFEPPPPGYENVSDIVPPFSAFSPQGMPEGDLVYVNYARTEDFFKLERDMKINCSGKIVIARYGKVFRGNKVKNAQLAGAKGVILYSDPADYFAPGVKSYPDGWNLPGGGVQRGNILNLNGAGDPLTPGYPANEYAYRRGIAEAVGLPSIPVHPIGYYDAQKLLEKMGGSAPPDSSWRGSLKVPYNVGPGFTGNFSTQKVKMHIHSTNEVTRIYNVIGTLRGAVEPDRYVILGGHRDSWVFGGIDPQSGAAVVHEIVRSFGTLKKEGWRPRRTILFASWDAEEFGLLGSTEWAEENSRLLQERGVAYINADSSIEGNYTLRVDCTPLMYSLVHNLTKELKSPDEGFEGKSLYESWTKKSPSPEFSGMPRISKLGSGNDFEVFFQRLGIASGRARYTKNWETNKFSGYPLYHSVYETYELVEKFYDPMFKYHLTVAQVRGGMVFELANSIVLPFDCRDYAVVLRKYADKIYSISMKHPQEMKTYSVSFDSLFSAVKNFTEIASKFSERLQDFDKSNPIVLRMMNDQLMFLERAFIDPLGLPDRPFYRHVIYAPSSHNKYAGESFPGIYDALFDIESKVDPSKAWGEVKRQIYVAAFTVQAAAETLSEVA
structure (smiles),measurement,setting,value
NCCCC[C@H](NC(=O)N[C@@H](CCC(=O)O)C(=O)O)C(=O)O [MIP-1033],IC50 value fold greater than the IC50 for the tetramer MIP-1444,"3 nM [123I]-MIP-1072, 1 hour at room temperature",36 fold
same,affinity for PSMA (in words),competitive binding curves,low affinity
